Experiments:
Format in all cases: cell-based
[1] = biological target: T1, human TLR7 (Homo sapiens, UniProt Q9NYK1); test: TLR7 inhibition reporter assay (HEK-Blue cells, SEAP reporter, gardiquimod stimulation); conditions: HEK-Blue cells overexpressing human TLR7, SEAP reporter, gardiquimod 7.5 μM
T1 construct: host or cells: HEK-Blue cells
T1 sequence (Q9NYK1 27-1049): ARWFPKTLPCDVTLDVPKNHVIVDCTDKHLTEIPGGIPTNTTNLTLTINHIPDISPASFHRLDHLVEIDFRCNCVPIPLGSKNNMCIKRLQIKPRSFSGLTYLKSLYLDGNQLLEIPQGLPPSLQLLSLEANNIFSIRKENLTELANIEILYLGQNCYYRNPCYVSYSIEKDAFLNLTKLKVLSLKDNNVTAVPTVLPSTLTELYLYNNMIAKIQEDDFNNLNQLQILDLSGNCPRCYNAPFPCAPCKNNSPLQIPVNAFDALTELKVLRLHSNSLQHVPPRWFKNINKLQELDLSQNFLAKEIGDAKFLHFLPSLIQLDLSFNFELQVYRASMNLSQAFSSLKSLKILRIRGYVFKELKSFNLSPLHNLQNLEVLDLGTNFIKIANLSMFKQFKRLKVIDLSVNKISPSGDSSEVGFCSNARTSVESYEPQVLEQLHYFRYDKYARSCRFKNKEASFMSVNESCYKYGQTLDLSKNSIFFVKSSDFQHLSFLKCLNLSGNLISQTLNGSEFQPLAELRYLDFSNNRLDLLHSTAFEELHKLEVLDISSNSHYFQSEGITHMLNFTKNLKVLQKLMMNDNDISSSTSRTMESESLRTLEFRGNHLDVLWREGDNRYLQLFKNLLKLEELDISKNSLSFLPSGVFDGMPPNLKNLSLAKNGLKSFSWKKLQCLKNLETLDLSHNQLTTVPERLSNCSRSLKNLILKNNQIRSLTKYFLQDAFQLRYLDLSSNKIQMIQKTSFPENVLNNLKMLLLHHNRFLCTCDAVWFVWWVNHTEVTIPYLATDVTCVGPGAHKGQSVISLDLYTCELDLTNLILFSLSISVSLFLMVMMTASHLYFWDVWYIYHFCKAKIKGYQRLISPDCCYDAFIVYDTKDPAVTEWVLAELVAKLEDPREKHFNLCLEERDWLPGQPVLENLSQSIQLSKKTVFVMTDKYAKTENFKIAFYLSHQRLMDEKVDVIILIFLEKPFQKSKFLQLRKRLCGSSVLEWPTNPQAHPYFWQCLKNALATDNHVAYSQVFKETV
Method in brief: (§1)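 HEK-Blue cells with NF-κB/AP-1-driven SEAP reporter, pre-treated 30 min at room temperature with compound (0.05 nM-50 μM). Stimulants: gardiquimod 7.5 μM (TLR7), R848 15.9 μM (TLR8) or ODN2006 5 nM (TLR9). SEAP measured after 22 h at 37° C.; percent inhibition versus agonist-plus-DMSO and known-inhibitor wells.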

[2] = biological target: T2, human TLR9 (Homo sapiens, UniProt Q9NR96); test: TLR9 inhibition reporter assay (HEK-Blue cells, SEAP reporter, ODN2006 stimulation); conditions: HEK-Blue cells overexpressing human TLR9, SEAP reporter, ODN2006 5 nM
T2 construct: host or cells: HEK-Blue cells
T2 sequence (Q9NR96 26-1032): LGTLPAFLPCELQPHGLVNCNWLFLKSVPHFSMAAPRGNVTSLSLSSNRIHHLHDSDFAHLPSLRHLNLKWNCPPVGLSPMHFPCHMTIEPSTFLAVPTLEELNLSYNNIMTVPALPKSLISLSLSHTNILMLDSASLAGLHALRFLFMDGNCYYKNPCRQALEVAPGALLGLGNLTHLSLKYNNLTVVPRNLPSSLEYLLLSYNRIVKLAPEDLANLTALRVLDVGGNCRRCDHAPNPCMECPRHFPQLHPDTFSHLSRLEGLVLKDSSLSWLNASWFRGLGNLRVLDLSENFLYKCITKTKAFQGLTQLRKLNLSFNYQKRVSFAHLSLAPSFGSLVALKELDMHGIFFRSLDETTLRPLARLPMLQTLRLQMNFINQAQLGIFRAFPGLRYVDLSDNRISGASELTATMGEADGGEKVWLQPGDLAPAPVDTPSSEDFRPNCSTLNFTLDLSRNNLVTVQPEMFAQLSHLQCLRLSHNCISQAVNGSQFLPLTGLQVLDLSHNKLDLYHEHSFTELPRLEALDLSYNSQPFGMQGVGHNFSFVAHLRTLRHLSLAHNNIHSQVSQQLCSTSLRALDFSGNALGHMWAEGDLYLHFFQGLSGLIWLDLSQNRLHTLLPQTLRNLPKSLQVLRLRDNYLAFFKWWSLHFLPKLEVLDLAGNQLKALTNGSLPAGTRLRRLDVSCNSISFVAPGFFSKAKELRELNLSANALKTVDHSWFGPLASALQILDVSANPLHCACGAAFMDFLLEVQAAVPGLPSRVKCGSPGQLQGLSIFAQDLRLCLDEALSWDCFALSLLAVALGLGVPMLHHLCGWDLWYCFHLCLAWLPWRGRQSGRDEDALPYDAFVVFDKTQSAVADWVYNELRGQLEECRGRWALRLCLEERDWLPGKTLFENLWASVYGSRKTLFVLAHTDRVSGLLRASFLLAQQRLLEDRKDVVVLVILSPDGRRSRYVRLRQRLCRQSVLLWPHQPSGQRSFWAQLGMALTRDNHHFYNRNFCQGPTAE
Method in brief: as §1

[3] = biological target: T3, human TLR8 (Homo sapiens, UniProt Q9NR97); test: TLR8 inhibition reporter assay (HEK-Blue cells, SEAP reporter, R848 stimulation); conditions: HEK-Blue cells overexpressing human TLR8, SEAP reporter, R848 15.9 μM
T3 construct: host or cells: HEK-Blue cells
T3 sequence (Q9NR97 27-1041): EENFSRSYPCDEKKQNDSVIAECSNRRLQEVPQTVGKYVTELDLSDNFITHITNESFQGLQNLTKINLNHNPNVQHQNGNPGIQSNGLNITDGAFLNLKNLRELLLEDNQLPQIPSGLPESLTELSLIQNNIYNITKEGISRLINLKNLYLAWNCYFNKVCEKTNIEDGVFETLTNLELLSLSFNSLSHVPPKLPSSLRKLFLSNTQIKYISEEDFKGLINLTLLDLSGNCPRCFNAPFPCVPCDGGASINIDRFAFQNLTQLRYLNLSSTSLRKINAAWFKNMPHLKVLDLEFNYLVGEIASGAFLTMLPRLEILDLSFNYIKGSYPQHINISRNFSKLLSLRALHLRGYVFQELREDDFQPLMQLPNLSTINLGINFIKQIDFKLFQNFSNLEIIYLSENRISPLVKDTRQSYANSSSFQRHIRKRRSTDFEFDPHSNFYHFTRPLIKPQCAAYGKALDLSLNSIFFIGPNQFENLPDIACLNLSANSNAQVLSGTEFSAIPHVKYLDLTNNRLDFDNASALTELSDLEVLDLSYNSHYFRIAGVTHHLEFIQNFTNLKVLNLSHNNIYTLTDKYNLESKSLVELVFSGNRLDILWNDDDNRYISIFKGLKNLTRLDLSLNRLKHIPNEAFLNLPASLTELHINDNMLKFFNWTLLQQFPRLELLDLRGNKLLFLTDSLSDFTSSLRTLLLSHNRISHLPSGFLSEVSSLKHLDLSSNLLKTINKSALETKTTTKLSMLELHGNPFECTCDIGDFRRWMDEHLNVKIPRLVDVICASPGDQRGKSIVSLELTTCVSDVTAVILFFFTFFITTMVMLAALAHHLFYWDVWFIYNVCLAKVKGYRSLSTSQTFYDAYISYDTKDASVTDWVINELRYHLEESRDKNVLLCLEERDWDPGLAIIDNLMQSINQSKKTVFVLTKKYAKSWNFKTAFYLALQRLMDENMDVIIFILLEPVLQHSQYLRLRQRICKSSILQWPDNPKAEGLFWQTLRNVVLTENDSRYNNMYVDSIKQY
Method in brief: as §1

Row | SMILES | IC50 [1] | IC50 [2] | IC50 [3]
1 | Cc1c(-c2[nH]c3ccc(C4CN(CC5CCOC5)C4)cc3c2C(C)C)cn(C)c(=O)c1Cl (stereo not drawn) [Example 499] | 0.043 µM | 9.97 µM | 0.025 µM
2 | Cc1cc(-c2[nH]c3ccc(C4CN(C)CCO4)cc3c2C(C)C)cn2ncnc12 (stereo not drawn) [Example 297] | 0.002 µM | 6.63 µM | 0.00061 µM
3 | Cc1cc(-c2[nH]c3ccc(C4CCCN(C(=O)C5(C)COC5)C4)cc3c2C(C)C)cc(C)n1 (stereo not drawn) [Example 204] | 0.004 µM | > 50 µM | 0.055 µM
4 | CCc1c(-c2ccnc(C)c2)[nH]c2ccc(CNC(=O)C3CCNC3)cc12 (stereo not drawn) [Example 445] | 2.68 µM | 1.62 µM | 3.24 µM
5 | Cc1cc(-c2[nH]c3ccc(C4CN(C5COC5)CCO4)cc3c2C(C)C)cn2ncnc12 (stereo not drawn) [Example 289, 2-(3-isopropyl-2-(8-methyl-[1,2,4]triazolo[1,5-a]pyridin-6-yl)-1H-indol-5-yl)-4-(oxetan-3-yl)morpholine] | 0.009 µM | > 50 µM | 0.024 µM
6 | COc1cc(-c2[nH]c3ccc(C4CN(C(=O)CNC5(C)COC5)CCO4)cc3c2C(C)C)cn2ncnc12 (stereo not drawn) [Example 361] | 0.00091 µM | 5.32 µM | 0.0025 µM
7 | CNC(=O)CN1CCCC(c2ccc3[nH]c(-c4cc(OC)c5ncnn5c4)c(C(C)C)c3c2)C1 (stereo not drawn) [Example 223] | 0.002 µM | 7.5 µM | 0.013 µM
8 | Cc1c(-c2[nH]c3ccc(C4CN(CCS(C)(=O)=O)C4)cc3c2C(C)C)cn(C)c(=O)c1C [Example 483] | 0.061 µM | 22.7 µM | 0.0088 µM
9 | Cc1c(-c2[nH]c3ccc(C4CC5CN(CCS(C)(=O)=O)CC5C4)cc3c2C(C)C)cn2ncnc2c1C (stereo not drawn) [Example 514] | 0.001 µM | 15.7 µM | 0.018 µM
10 | COCC(=O)N1CCCC(c2ccc3[nH]c(-c4cc(C)nc(C)c4)c(C(C)C)c3c2)C1 (stereo not drawn) [Example 205] | 0.12 µM | > 50 µM | 0.402 µM
11 | COc1cc(-c2[nH]c3ccc(C4CCCNC4)cc3c2C(C)C)cn2ncnc12 (stereo not drawn) [Example 181, 6-(3-isopropyl-5-(piperidin-3-yl)-1H-indol-2-yl)-8-methoxy-[1,2,4]triazolo[1,5-a]pyridine] | 0.0004 µM | 1.21 µM | 0.0028 µM
12 | COc1cc(-c2[nH]c3ccc(C4CN(C5COC5)C4)cc3c2C(C)C)cn2ncnc12 [Example 274] | 0.001 µM | 3.88 µM | 0.0027 µM
13 | Cc1cc(-c2[nH]c3ccc(CCN4CCOCC4)cc3c2C(C)C)cc(C)n1 [Example 393, 2-(2,6-dimethylpyridin-4-yl)-5-[2-(morpholin-4-yl)ethyl]-3-(propan-2-yl)-1H-indole] | 0.018 µM | 0.883 µM | 0.0093 µM
14 | CCN(C)C1CCC(c2ccc3[nH]c(-c4cc(OC)c5ncnn5c4)c(C(C)C)c3c2)CC1 (single isomer, unassigned) [Example 65] | 0.00023 µM | 1.15 µM | 0.0013 µM
15 | Cc1c(-c2[nH]c3ccc(C4CC5CN(CC#N)CC5C4)cc3c2C(C)C)cn2cnnc2c1C (stereo not drawn) [Example 558] | 0.006 µM | 3.72 µM | 0.117 µM
16 | Cc1cc(-c2[nH]c3ccc(C4CCCCC4)cc3c2C(C)C)cc(C)n1 [Example 469] | 1.11 µM | 9.02 µM | 3.13 µM
17 | COc1cc(-c2[nH]c3ccc(C4CCC(NC5(C)CC5)CC4)cc3c2C(C)C)cn2ncnc12 (stereo not drawn) [Example 42] | 0.0002 µM | 2.61 µM | 0.001 µM
18 | Cc1c(-c2[nH]c3ccc(CC4CN(CCS(C)(=O)=O)C4)cc3c2C(C)C)cn(C)c(=O)c1C [Example 418] | 0.077 µM | 9.21 µM | 0.007 µM
19 | COc1cc(-c2[nH]c3ccc(C4CCC(NC(=O)CN5CCCC5)CC4)cc3c2C(C)C)cn2ncnc12 (stereo not drawn) [Example 133] | 0.00028 µM | 2.02 µM | 0.00075 µM
20 | Cc1c(-c2[nH]c3ccc(C4CN(C)C4)cc3c2C(C)C)cn2ncnc2c1C [Example 547] | 0.00037 µM | 4.55 µM | 0.00067 µM
21 | Cc1cc(-c2[nH]c3ccc(C4CCCN(C(=O)C5C(C)(C)C5(C)C)C4)cc3c2C(C)C)cc(C)n1 (stereo not drawn) [Example 198] | 0.384 µM | 23.8 µM | 1.1 µM
22 | Cc1c(-c2[nH]c3ccc(C4CC5CN(C6CCOCC6)CC5C4)cc3c2C(C)C)cn2cnnc2c1C (stereo not drawn) [Example 563] | 1.27 µM | 38.2 µM | 3.13 µM
23 | Cc1c(-c2[nH]c3ccc(C4CC(NCC#N)C4)cc3c2C(C)C)cn2ncnc2c1C (stereo not drawn) [Example 567] | 0.002 µM | 26.7 µM | 0.0011 µM
24 | CNCC(=O)NC1CCC(c2ccc3[nH]c(-c4cc(C)nc(C)c4)c(C(C)C)c3c2)CC1 (single isomer, unassigned) [Example 129] | 0.0003 µM | 0.544 µM | 0.0039 µM
25 | Cc1c(-c2[nH]c3ccc(C4CN(CCS(C)(=O)=O)CCO4)cc3c2C(C)C)cn2ncnc2c1C (stereo not drawn) [Example 347] | 0.022 µM | > 50 µM | 0.014 µM
